Assay results taken from patent publication US11761045B2, “Splice variants associated with neomorphic SF3B1 mutants” (Eisai R&D Management Co., Ltd., priority 2015, dated 2023).

Legend:
Nalm-6 SF3B1^K700E cells = assay: Splice variant levels in Nalm-6 isogenic cells by RNA-Seq; assay type: cell-based, human; details: additional compounds, FIG. 19
Method: (§1) To investigate the broader activity of E7107 on normal and aberrant splicing, RNA from Nalm-6 isogenic cells treated for two and six hours at 15 nM was analyzed by NanoString®. […] Normal and aberrant splicing in the isogenic cell lines was also analyzed by RNA-Seq following treatment with one of additional compounds having formulas 1 or 2. […] For the RNA-Seq analysis, cells were washed with PBS after treatment with E7107 or other test compound, and RNA was isolated using PureLink (Life Technology) as reported in the manufacturer's manual. cDNA library preparation, sequencing and raw read filtering was performed as described in Ren, S. et al. “RNA-Seq analysis of prostate cancer in the Chinese population identifies recurrent gene fusions, cancer-associated long noncoding RNAs and aberrant alternative splicings.” Cell Res 22, 806-821, doi:10.1038/cr.2012.30 (2012).

Nalm-6 SF3B1^K700K cells = assay: as above; assay type: cell-based, human; details: additional compounds, FIG. 19
Method: as §1

| SMILES | expression of WT-associated and MUT-associated RNA isoforms by RNA-Seq (Nalm-6 SF3B1^K700E cells) | expression of WT-associated and MUT-associated RNA isoforms by RNA-Seq (Nalm-6 SF3B1^K700K cells) |
| --- | --- | --- |
| C/C(=C\C=C\[C@@H](C)c1ccccn1)[C@H]1OC(=O)C[C@H](O)CC[C@@](C)(O)[C@@H](OC(=O)N2CCN(C3CCCCCC3)CC2)/C=C/[C@@H]1C [Compound 1] | inhibited expression of both WT-associated and MUT-associated RNA isoforms | inhibited expression of both WT-associated and MUT-associated RNA isoforms |
| C/C(=C\C=C\[C@@H](C)c1ccccn1)[C@H]1OC(=O)C[C@H](O)CC[C@@](C)(O)[C@@H](OC(=O)N2CCN(C)CC2)/C=C/[C@@H]1C [Compound 2] | inhibited expression of both WT-associated and MUT-associated RNA isoforms | inhibited expression of both WT-associated and MUT-associated RNA isoforms |
